Test results reported in ChEMBL document CHEMBL3621131, “Current developments of coumarin-based anti-cancer agents in medicinal chemistry” (Eur J Med Chem, 2015).
Converted amounts (≈) assume the structure as drawn.

Tests used:
MCF7 [1] = assay: Antitumor activity against human MCF7 cells assessed as cell viability by MTT assay; type: functional, cell-based
K562 [2] = assay: Antitumor activity against human K562 cells assessed as cell viability by MTT assay; type: functional, cell-based
MCF7 [3] = assay: Cytotoxicity against human MCF7 cells assessed as cell viability incubated for 72 hrs by SRB assay; type: functional, cell-based; conditions: MCF7, 72 h
HCT-15 = assay: Cytotoxicity against human HCT15 cells assessed as cell viability incubated for 72 hrs by SRB assay; type: functional, cell-based; conditions: HCT-15, 72 h
DU-145 [4] = assay: Antiproliferative activity against human DU145 cells assessed as growth inhibition; type: functional
[5] = Antiproliferative activity against human DLD1 cells assessed as growth inhibition; type: functional; conditions: DLD-1
NCI-H157 = assay: Antiproliferative activity against human NCI-H157 cells assessed as growth inhibition; type: functional
[6] = Antiproliferative activity against human BT20 cells assessed as growth inhibition; type: functional; conditions: BT-20
K562 [7] = assay: Antiproliferative activity against human K562 cells assessed as growth inhibition; type: functional
MCF7 [8] = assay: Antiproliferative activity against human MCF7 cells; type: functional, cell-based
KB = assay: Antiproliferative activity against human KB cells assessed as growth inhibition; type: functional, cell-based
HepG2 [9] = assay: Cytotoxicity against human HepG2 cells assessed as cell viability incubated for 72 hrs by SRB assay; type: functional, cell-based; conditions: HepG2, 72 h
SK-N-MC = assay: Cytotoxicity against human SK-N-MC cells as cell viability by MTT assay; type: functional, cell-based
MDA-MB-231 [10] = assay: Cytotoxicity against human MDA-MB-231 cells assessed as cell viability by MTT assay; type: functional, cell-based
HepG2 [11] = assay: Cytotoxicity against human HepG2 cells assessed as cell viability by MTT assay; type: functional, cell-based
NCI-H460 = assay: Antiproliferative activity against human NCI-H460 cells assessed as growth inhibition; type: functional, cell-based
[12] = target: T1, M-phase inducer phosphatase 1 (Homo sapiens, UniProt P30304); assay: Inhibition of human CDC25A phosphatase
T1 sequence (P30304 whole entry): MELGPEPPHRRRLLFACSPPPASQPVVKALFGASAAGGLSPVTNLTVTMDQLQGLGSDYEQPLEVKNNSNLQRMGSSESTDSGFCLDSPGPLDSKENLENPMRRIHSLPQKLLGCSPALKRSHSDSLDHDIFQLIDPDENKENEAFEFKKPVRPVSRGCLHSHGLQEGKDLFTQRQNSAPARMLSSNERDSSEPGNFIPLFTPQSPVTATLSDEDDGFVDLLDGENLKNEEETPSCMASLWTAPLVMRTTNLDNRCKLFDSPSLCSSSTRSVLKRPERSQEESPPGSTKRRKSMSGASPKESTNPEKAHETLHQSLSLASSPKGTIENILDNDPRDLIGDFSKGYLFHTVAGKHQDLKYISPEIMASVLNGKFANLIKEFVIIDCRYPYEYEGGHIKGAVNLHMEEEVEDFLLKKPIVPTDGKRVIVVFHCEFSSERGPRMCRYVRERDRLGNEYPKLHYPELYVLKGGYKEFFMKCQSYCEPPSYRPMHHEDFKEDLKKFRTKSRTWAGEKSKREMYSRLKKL

[13] = target: T2, M-phase inducer phosphatase 2 (Homo sapiens, UniProt P30305); assay: Inhibition of human CDC25B phosphatase
T2 sequence (P30305 whole entry): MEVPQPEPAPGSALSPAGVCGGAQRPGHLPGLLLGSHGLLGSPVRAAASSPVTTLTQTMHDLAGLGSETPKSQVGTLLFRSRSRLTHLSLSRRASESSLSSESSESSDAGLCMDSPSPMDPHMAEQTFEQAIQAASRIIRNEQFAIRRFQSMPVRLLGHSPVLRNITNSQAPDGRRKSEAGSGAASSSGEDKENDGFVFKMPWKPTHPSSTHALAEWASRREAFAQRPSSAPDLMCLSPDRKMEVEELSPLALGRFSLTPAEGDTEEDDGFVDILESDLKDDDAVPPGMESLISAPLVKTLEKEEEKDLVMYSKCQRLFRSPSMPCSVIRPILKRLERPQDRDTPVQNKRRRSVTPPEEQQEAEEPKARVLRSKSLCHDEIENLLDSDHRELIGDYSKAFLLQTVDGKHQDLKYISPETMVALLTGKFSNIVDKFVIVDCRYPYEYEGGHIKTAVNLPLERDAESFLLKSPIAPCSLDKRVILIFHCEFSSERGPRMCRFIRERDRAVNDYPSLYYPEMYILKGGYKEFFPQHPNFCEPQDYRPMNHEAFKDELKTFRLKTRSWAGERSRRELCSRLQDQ

[14] = target: T3, M-phase inducer phosphatase 3 (Homo sapiens, UniProt P30307); assay: Inhibition of human CDC25C phosphatase
T3 sequence (P30307 whole entry): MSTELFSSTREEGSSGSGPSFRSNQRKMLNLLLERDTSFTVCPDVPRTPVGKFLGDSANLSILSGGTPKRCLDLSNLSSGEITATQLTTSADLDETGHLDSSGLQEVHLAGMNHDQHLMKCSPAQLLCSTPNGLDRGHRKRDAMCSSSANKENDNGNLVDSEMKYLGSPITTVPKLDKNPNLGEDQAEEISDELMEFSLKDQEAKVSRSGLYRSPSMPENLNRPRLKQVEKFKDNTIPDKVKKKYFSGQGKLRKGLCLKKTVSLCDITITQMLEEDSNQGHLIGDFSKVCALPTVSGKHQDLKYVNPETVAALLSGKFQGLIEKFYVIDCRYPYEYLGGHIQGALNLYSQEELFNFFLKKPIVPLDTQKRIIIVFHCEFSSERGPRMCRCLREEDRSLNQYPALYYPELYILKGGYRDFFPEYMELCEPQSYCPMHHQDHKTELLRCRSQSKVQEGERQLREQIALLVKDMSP

MCF7 [15] = assay: Antiproliferative activity against human MCF7 cells assessed as growth inhibition; type: functional, cell-based
MDA-MB-231 [16] = assay: Antiproliferative activity against human MDA-MB-231 cells assessed as growth inhibition; type: functional, cell-based
[17] = Antiproliferative activity against human hTERT-HME1 cells assessed as growth inhibition; type: functional, cell-based
DU-145 [18] = assay: Antiproliferative activity against human DU145 cells assessed as growth inhibition by tryphan blue exclusion method; type: functional
A549 = assay: Antitumor activity against human A549 cells assessed as cell viability incubated for 72 hrs by MTT assay; type: functional, cell-based; conditions: A549, 72 h

Question: Which results are given for `CCc1nc([N+](=O)[O-])c(N2CCN(/C(=N/Nc3ccc4c(C)cc(=O)oc4c3)C(C)=O)CC2)n1Cc1ccccc1`?
Answer: IC50 (MCF7 [1]): 20.2 µM; IC50 (K562 [2]): 9.3 µM

Question: Which IC50 (MCF7 [3]) does the source give for `O=C(/C=C1\c2c(c3ccccc3oc2=O)OC1(c1ccccc1)N1CCCC1)c1ccccc1` (stereo not drawn) here?
Answer: Its IC50 is 8 µM.

Question: What about the IC50 (HCT-15) of the same molecule?
Answer: The IC50 was 8 µM.

Question: For `O=c1oc2c(Br)cccc2cc1S(=O)(=O)Nc1ccc(Br)cc1`, which GI50 (DU-145 [4]) is on record?
Answer: The GI50 was 12 µM.

Question: What about the GI50 [5] of the same molecule?
Answer: Its GI50 is 12 µM.

Question: What about the GI50 (NCI-H157) of the same molecule?
Answer: The GI50 was 12 µM.

Question: And the GI50 [6]?
Answer: Its GI50 is 12 µM.

Question: What about the GI50 (K562 [7]) of the same molecule?
Answer: The GI50 was 12 µM.

Question: Which IC50 (MCF7 [8]) does the source give for `Cc1ccc(C(=O)c2cc(F)c(OCC(=O)NNC(=O)c3cc4ccccc4oc3=O)c(Cl)c2)cc1` here?
Answer: The IC50 was less than 10 µM.

Question: With `COc1cc(OC)cc(-c2cc3ccc(OC(C)=O)c(OC(C)=O)c3oc2=O)c1` as the molecule, how does the IC50 (KB) read?
Answer: The IC50 was 5.18 µM.

Question: Which IC50 (MCF7 [3]) does the source give for `CC1=CP(C(c2ccccc2)(c2ccccc2)c2ccccc2)Oc2c1c(=O)oc1ccccc21` (stereo not drawn) here?
Answer: Its IC50 is no more than 3.89 µg/mL.

Question: What about the IC50 (HepG2 [9]) of the same molecule?
Answer: Its IC50 is no more than 3.89 µg/mL.

Question: With `O=c1oc2ccccc2c2c1C(c1cc(Br)ccc1O)SCCN2` (stereo not drawn) as the molecule, how does the IC50 (MCF7 [1]) read?
Answer: Its IC50 is 3.75 µg/mL.

Question: And the IC50 (SK-N-MC)?
Answer: Its IC50 is 3.75 µg/mL (≈ 9.28 µM).

Question: What about the IC50 (MDA-MB-231 [10]) of the same molecule?
Answer: Its IC50 is 3.75 µg/mL (≈ 9.28 µM).

Question: What does the source list for `CCOC1(c2ccccc2)Oc2c(c(=O)oc3ccccc23)/C1=C\C(=O)c1ccccc1` (stereo not drawn)?
Answer: IC50 (MCF7 [3]): 8 µM; IC50 (HCT-15): 8 µM

Question: With `Cc1cc(-c2cc3cc(Cl)ccc3oc2=O)n(-c2nc(-c3ccc(Cl)cc3)cs2)n1` as the molecule, how does the IC50 (HepG2 [11]) read?
Answer: Its IC50 is no more than 3.25 µM.

Question: Which IC50 (NCI-H460) does the source give for `C/C(=N/NC(=O)c1cc2ccccc2oc1=O)c1cccnc1` here?
Answer: The IC50 was 10 µM.

Question: With `COc1ccc2c(CSC3=CC(=O)c4ccccc4C3=O)cc(=O)oc2c1` as the molecule, how does the IC50 [12] read?
Answer: The IC50 was no more than 9 µM.

Question: And the IC50 [13]?
Answer: The IC50 was no more than 9 µM.

Question: And the IC50 [14]?
Answer: Its IC50 is no more than 9 µM.

Question: And the IC50 (MCF7 [15])?
Answer: The IC50 was no more than 11 µM.

Question: And the IC50 (MDA-MB-231 [16])?
Answer: Its IC50 is no more than 11 µM.

Question: And the IC50 [17]?
Answer: Its IC50 is 18 µM.

Question: With `NCCCCCCCCNC(=O)c1c(O)c2ccccc2oc1=O` as the molecule, how does the GI50 (DU-145 [18]) read?
Answer: The GI50 was less than 10 µM.

Question: Which IC50 (MCF7 [8]) does the source give for `Cc1cc(C(=O)c2ccccc2Br)ccc1OCC(=O)NNC(=O)c1cc2ccccc2oc1=O` here?
Answer: Its IC50 is less than 10 µM.

Question: Which IC50 (MCF7 [1]) does the source give for `Cc1ccc2c(c1)C(c1ccccc1)c1c(c3ccccc3oc1=O)N2` (stereo not drawn) here?
Answer: Its IC50 is 0.52 µM.

Question: What about the IC50 (A549) of the same molecule?
Answer: Its IC50 is 0.14 µM.

Question: Which IC50 (HepG2 [11]) does the source give for `COc1ccc(-c2csc(-n3nc(C)cc3-c3cc4cc(Cl)ccc4oc3=O)n2)cc1` here?
Answer: The IC50 was no more than 3.25 µM.

Question: With `COc1cccc(C2c3cc(C)ccc3Nc3c2c(=O)oc2ccccc32)c1` (stereo not drawn) as the molecule, how does the IC50 (A549) read?
Answer: Its IC50 is 0.05 µM.

Question: For `Cc1cc(C(=O)c2ccc(Cl)cc2Cl)ccc1OCC(=O)NNC(=O)c1cc2ccccc2oc1=O`, which IC50 (MCF7 [8]) is on record?
Answer: Its IC50 is less than 10 µM.
